Patent US5962456A, “N-acylpiperazine derivative, anti-ulcer drug, and antibacterial drug” (Shiseido Co., Ltd., priority 1996, dated 1999)

Tests used:
[1] = test system: isolated gastric fundic gland; experiment: CAP: Acid Secretion Inhibition Test In Vitro ([14C]-aminopyrine uptake); assay type: cell-based, rabbit (male Japanese White); conditions: final concentration 10^-5 M, histamine 10^-5 M, rabbit gastric fundic glands; for inhibition at 10 µM: Oryctolagus cuniculus, read-out: CAP acid secretion inhibitory rate
Procedure: CAP: Acid Secretion Inhibition Test In Vitro
The acid secretion inhibitory activity in a cell level is studied. It can also be used for studying the mechanism of the effect. […]
ii-a) Preparation of Isolated Gastric Fundus Gland Suspension
First, an isolated gastric fundic gland sample was prepared. Namely, a male Japanese White rabbit (2.5 to 3 kg) was anesthetized to death with Nembutal™ and then the abdomen was incised. Immediately thereafter, the stomach was removed and, after its pyloric and cardiac antrum were severed, incised along its greater curvature into two sheets. The gastric contents adhering to the mucosal surface was washed out with ice-cooled PBS (-) and then carefully washed therein. The gastric wall was spread on a cork board with its mucosal surface facing up and the feed and mucus thereon were completely removed with sterile gauze. The mucosa was separated therefrom by a spatula and then collected in ice-cooled PBS (-). After being washed twice with PBS (-), the mucosa was minced into 2-3 mm^3 pieces by scissors. These pieces were further washed twice with a nutrient solution. […] Into 70 ml of the nutrient solution containing 1 mg/ml of collagenase, minced mucosal pieces were dispersed and intensely stirred in a conical flask with a stirrer at 37° C. for 40 to 60 minutes. During this period, 100% O2 was sprayed on the nutrient solution surface and the pH was appropriately measured such that it was immediately adjusted to pH 7.4, when the value was therebelow, with a base. The nutrient solution was added to the reaction solution so as to attain the total amount of about 200 ml. After being filtered through a mesh, the suspension was divisionally introduced into 50 ml centrifuge tubes and left for 15 minutes such that gastric fundic gland was deposited. The supernatant was repeatedly removed by an aspirator, dispersed in the nutrient solution, and then left such that the gastric fundic gland was washed three times. At this time, without using a pipette, the suspension was alternately introduced into two centrifuge tubes so as to effect dispersion. The number of cells was counted under microscope and adjusted to 1.6×10^6 cells/ml. […]
ii-b) [^14 C]-aminopyrine Uptake Test
Then, [^14 C]-aminopyrine uptake test was performed. After an Eppendorf tube was weighed, 10 μl (final concentration: 10^-5 M) of histamine dissolved in the above-mentioned nutrient solution, 10 μl (final concentration: 10^-5 M) of the test compound dissolved in DMSO, and 10 μl (final concentration: 0.05 μCi/ml) of [^14 C]-aminopyrine diluted with the nutrient solution were introduced therein and then 970 μl of the isolated gastric fundic gland suspension prepared above was added thereto. […] After being centrifuged for 30 minutes, 200 μl of its supernatant was collected into a mini-vial, while the rest was removed by an aspirator. The gland pellet was completely dried as the tube with its lid being opened was kept for one night in a drying oven at 80° C. and then the lid was closed and the weight was determined at room temperature. Then 100 μl of 1N KOH was added thereto and the tube with its lid being closed was treated at 60° C. for 1 to 2 hours so as to dissolve the pellet. Then, the contents thereof were transferred to a mini-vial. Into the mini-vial containing the supernatant or gland pellet, 4 ml of Atomlite™ was added and then the radioactivity was measured by a liquid scintillation counter. Here, after the radioactivity of the gland pellet was corrected by using a sample in which 20 mM of NaSCN was added so as to cancel the hydrogen ion concentration gradient, the integration ratio of aminopyrine specifically trapped by the gland pellet was calculated. This experiment was performed in duplicate. […]
ii-c) Calculation of the Accumulation Rate of Aminopyrine
Here, its principle will be briefly explained. In the isolated gastric fundic gland, acid is accumulated in a space between its secretory tubule and intraglandular cavity.

[2] = test system: Helicobacter pyroli; experiment: AHP: Antibacterial Activity Test Against Helicobacter pyroli (agar dilution); assay type: cell-based, HP NCTC 11637; conditions: for AHP antibacterial activity, colony number relative to control plate: MIC 100 μg/ml or more, plate with 250 mM solution of the sample compound; for MIC: Helicobacter, NCTC11637, 168 h, HP NCTC 11637, agar dilution, 7 days, read-out: AHP minimum inhibitory concentration (MIC)
Procedure: AHP: Antibacterial Activity Test Against Helicobacter pyroli i) Meaning The minimum inhibitory concentration (MIC) against Helicobacter pyroli (microaerophilic gram-negative bacterium which is supposed to deeply involve in pathogenesis, relapse, and recrudescence of ulcer, referred to as "HP" in the following) is measured so as to find out compounds which have antimicrobial activity against Helicobacter pyroli. ii) Method MICs were determined by the agar dilution method. The stock culture (-80° C.) of HP NCTC 11637 was thawed and cultured on tripticase soy agar supplemented with 5% sheep blood at 37° C. in an atmosphere of 5% O2, 10% CO2, and 85% N2. Grown colonies were transferred to the same plate and precultured for 3 days under the same condition. […] 10 μl of the bacterial suspension for inoculation (about 10^3 cfu) was inoculated on this plate and cultured for 7 days under the same condition as that of preculture. […] As the result of the comparison of these plates, when the number of the colony on the plate containing the sample compound was less than 90% with respect to that on the control plate, it was represented by "+". Contrary to this, when there was 90% or more, it was represented by "-".

[3] = MTT: Cell Damaging and Protecting Effect Test; assay type: cell-based, rabbit (male Japanese White); conditions: rabbit, gastric corpus mucosa cells, final concentration 10^-4 M, smaller value is better, read-out: MTT cell damaging rate
Text: (§1) MTT: Cell Damaging and Protecting Effect Test
(§2) It is confirmed that there is no toxicity in cell level. Those having a toxicity in cell level are inappropriate as an anti-ulcer drug.
(§3) A male Japanese White rabbit (2.5 to 3 kg) was anesthetized to death by Nembutal™ and, immediately thereafter, its stomach was removed. The greater curvature of the stomach was incised so as to remove the stomach contents therefrom. After the mucosal surface was washed with HBSS (Hanks' Balanced Salt Solution), the stomach in ice-cooled HBSS was transferred to a laboratory. Then, after the pyloric antrum was removed, the gastric corpus mucosa was separated by a spatula and then minced into 2 to 3 mm^3 pieces in BME (Basal Medium Eagle). Thereafter, these pieces were shaken at 120 to 130 cycles/minute for 15 minutes at 37° C. in BME 60 ml containing 280 U/ml of dispase and 30 to 50 U/ml of collagenase. Here, the concentration of collagenase was appropriately changed for each lot in view of the state of cells. The pieces were washed twice with EBSS (Earle's Balanced Salt Solution) containing 1 mM of EDTA and then shaken in MEM (Minimum Essential Medium) containing 1 mM of EDTA at 37° C. for 5 minutes. Subsequently, they were shaken in the dispase and collagenase having the same concentrations as those mentioned above for 15 minutes so as to remove the supernatant and then further shaken at 37° C. for 50 to 60 minutes at 120 to 130 cycles/minute. Then, after being washed twice with HBSS, Ham F12 containing 2% of Ultrocer G™ was used to attain the concentration of 1×10^6 cells/ml. Thus formed suspension was dispensed in each well of a 96-well plate by 200 μl. The plate was incubated in the atmosphere composed of 5% CO2 and 95% air at 37° C. for three days so as to attain a confluent state and then subjected to MTT assay.
(§4) The sample compound was dissolved in DMSO so as to attain a concentration of 10^-2 M and then diluted with HBSS containing 2% of Ultrocer G™ so as to attain a final concentration of 10^-4 M. To each group, which 8 wells were used for, 10 μl of MTT reagent was added immediately after 100 μl of the medium in each well was exchanged for same volume of the resulting solution of the sample compound. After being incubated in an atmosphere composed of 5% CO2 and 95% air at 37° C. for 4 hours, thus formed solution was centrifuged and then its supernatant was discarded. Subsequently, 100 μl of 100% ethanol was added to the residue so as to dissolve MTT formazan. Then, the absorbance (OD: 570 to 630) was measured by a microplate reader. This method utilizes a phenomenon in which MTT is changed to MTT formazan only by mitochondria of living cells so as to change color.
(§5) The cell damaging or cell protecting effect of the sample compound at the final concentration of 10^-4 M was expressed as cell damaging rate (%) as follows:
(§6) cell damaging rate (%)=(1-(absorbance in sample group/absorbance in control group))×100
(§7) Accordingly, the smaller rate value is better in the cell damage.

[4] = test system: mice; conditions: mouse, in vivo
Procedure: AT: Single Dose Toxicity Pretest
Male Slc:ICR mice (5-week-old) were used. Each group has 3 to 5 mice and each mouse was fasted, but allowed free access to water, for 4 to 5 hours from 9 a.m. in the test day. Then, 2,000 mg/10 ml/kg of the sample compound dissolved or suspended in an aqueous solution of 0.5% sodium carboxymethyl cellulose was orally administered thereto. To a control, only the vehicle was administered. […] The body weight was measured before and after the fasting as well as at the same time everyday. The dead animals were immediately subjected to autopsy and their organs were observed microscopically. Also, the living animals were sacrificed with ether or carbon dioxide one week after the administration and then their organs were observed microscopically.
The toxicity at the single dose of 2,000 mg/kg of the sample compound was expressed as being classified into 5 levels.
5: Mortality rate is 0%; no toxicity is found at all both in behavior and organs.
4: Mortality rate is 0%; while no toxicity is found in organs, slight toxicity is observed in behavior and body weight increase.
3: While there is a dead animal (though not all the animals are dead), no toxicity is found in organs.
2: Regardless of whether there is a dead animal or not, toxicity is found in organs.
1: All the animals are dead.

[5] = test system: stress ulcer; experiment: WIS: Restraint and Water Immersion Stress-Induced Ulcer Inhibition Test; assay type: in vivo, rat (male Crj:SD or Slc:SD); conditions: 100 mg/kg oral, rats, 7 hours restraint and water immersion (21° C.)
Procedure: WIS: Restraint and Water Immersion Stress-Induced Ulcer Inhibition Test
The degree of inhibition of the stress ulcer formation is tested.
Male Crj:SD or Slc:SD rats (6 to 7-week-old) were fasted overnight, but allowed free access to water. Each group has 5 to 8 of these rats. […] To a control group, the vehicle was administered. 10 minutes later, the rats were placed in a stress cage and immersed to the level of xipfoid process in a water bath (21° C.) for 7 hours. At the end of the stress, the rats were sacrificed by inhalation of ether or carbon dioxide. Then, the stomach of each was removed, inflated by injecting 10 ml of 5% formalin neutral buffer solution, and immersed in 1% formalin neutral buffer solution for 30 minutes or more to be fixed. The stomach was incised along the greater curvature and then the length of each erosion in the glandular portion was determined under dissecting microscope. The sum of the length of erosions per stomach was defined as ulcer index (UI).
The effect obtained when 100 mg/kg of the sample compound had been administered was expressed as ulcer formation inhibitory rate (%) as follows:
ulcer formation inhibitory rate (%)=(1-(UI in sample group/UI in control group))×100

[6] = test system: gastric corpus mucosa cells; experiment: MTT: Cell Damaging and Protecting Effect Test; assay type: cell-based, rabbit (male Japanese White); conditions: final concentration 10^-4 M, 4 hours; smaller value is better; 100 µM
Text: as §1, §2, §3, §4, §5, §6, §7

CC(C)Cc1cc(C(=O)N2CCN(Cc3ccccc3)CC2)ccc1OCc1ccccc1 [Example 9, 1-(4-benzyloxy-3-isobutyl)benzoyl-4-benzylpiperazine]
inhibition at 10 µM [1]: 94.6%
AHP antibacterial activity, colony number relative to control plate [2]: + (the number of the colony on the plate containing the sample compound was less than 90% with respect to that on the control plate)
cytotoxicity at 4 h, 100 µM [3]: -32%

CC(C)Cc1cc(C(=O)N2CCN(C(=O)NC(C)C)CC2)ccc1OCc1ccc(F)cc1 [Example 8, 1-[4-(4-fluorobenzyloxy)-3-isobutyl]benzoyl-4-(N-isopropylcarbamoyl)piperazine]
inhibition at 10 µM [1]: 36.9%
MIC [2]: < 3.13 µg/mL
cytotoxicity at 4 h, 100 µM [3]: -93%

CC(C)Cc1cc(C(=O)N2CCN(c3ccccn3)CC2)ccc1OCc1ccc(F)cc1 [Example 10, 1-[4-(4-fluorobenzyloxy)-3-isobutyl]benzoyl-4-(2-pyridyl) piperazine]
inhibition at 10 µM [1]: 96%
cytotoxicity at 4 h, 100 µM [3]: -34%
AT single dose toxicity level [4]: 5

CC(C)Cc1ccc(C(=O)N2CCN(C(c3ccccc3)c3ccccc3)CC2)cc1O [Example 12, 1-diphenylmethyl-4-(3-hydroxy-4-isobutyl)benzoylpiperazine]
inhibition at 10 µM [1]: 41.9%
AHP antibacterial activity, colony number relative to control plate [2]: + (the number of the colony on the plate containing the sample compound was less than 90% with respect to that on the control plate)
cytotoxicity at 4 h, 100 µM [3]: -12%

CC(C)Cc1cccc(C(=O)N2CCN(Cc3ccc4c(c3)OCO4)CC2)c1O [Example 11]
inhibition at 10 µM [1]: 93.1%
MIC [2]: < 3.13 µg/mL
cytotoxicity at 4 h, 100 µM [3]: 5%

CC(C)=CCC/C(C)=C/COc1ccc(C(=O)N2CCN(Cc3ccc4c(c3)OCO4)CC2)cc1 [Example 4, 1-(4-geranyloxy)benzoyl-4-piperonylpiperazine]
WIS ulcer formation inhibitory rate [5]: 43%
AHP antibacterial activity, colony number relative to control plate [2]: + (the number of the colony on the plate containing the sample compound was less than 90% with respect to that on the control plate)
cytotoxicity at 4 h, 100 µM [3]: -29%

COc1cc(C(=O)N2CCN(Cc3ccccc3)CC2)cc(OC/C=C(\C)CCC=C(C)C)c1OC [Example 7, 1-benzyl-4-(3,4-dimethoxy-5-geranyloxy)benzoylpiperazine]
inhibition at 10 µM [1]: 99.6%
cytotoxicity at 4 h, 100 µM [3]: -44%

CC(C)=CCC/C(C)=C/COc1ccc(C(=O)N2CCN(CCNC(=O)c3ccc4c(c3)OCO4)CC2)cc1CC(C)C [Example 2, 1-(4-geranyloxy-3-isobutyl)benzoyl-4-[2-(piperonyloylamino)ethyl]piperazin]
CAP acid secretion inhibitory rate [1]: 99.4%
MTT cell damaging rate [6]: 22%

CC(C)=CCOc1cc(C(=O)N2CCN(Cc3ccccc3)CC2)cc(OCC=C(C)C)c1OCC=C(C)C [Example 6, 1-benzyl-4-(3,4,5-triprenyloxy)benzoylpiperazine]
inhibition at 10 µM [1]: 99.5%
cytotoxicity at 4 h, 100 µM [3]: -16%

COc1cc(C(=O)N2CCN(Cc3ccccc3)CC2)cc(OC)c1OC/C=C(\C)CCC=C(C)C [Example 5, 1-benzyl-4-(3,5-dimethoxy-4-geranyloxy)benzoylpiperazine]
inhibition at 10 µM [1]: 99.2%
AHP antibacterial activity, colony number relative to control plate [2]: + (the number of the colony on the plate containing the sample compound was less than 90% with respect to that on the control plate)
cytotoxicity at 4 h, 100 µM [3]: -50%

CC(C)=CCC/C(C)=C/COc1ccc(C(=O)N2CCN(CCOC(=O)c3ccncc3)CC2)cc1 [Example 3, 1-(4-geranyloxy)benzoyl-4-(2-isonicotinoyloxyethyl)piperazine]
inhibition at 10 µM [1]: 101%
cytotoxicity at 4 h, 100 µM [3]: -24%
